Results on 25 compounds are retold here after patent US10206907B2, “Compounds useful for the treatment of degenerative and inflammatory diseases” (GALAPAGOS NV, priority 2008, dated 2019).

Bounds are passed on as bounds.

For test [1], the target named is Recombinant human JAK1 catalytic domain (Homo sapiens (Human), UniProt P23458). Briefly: JAK1 inhibition assay. It is filed as biochemical. As to conditions: semi-quantitative score. In a few lines: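 Radiometric assay read by scintillation counting after phosphoric-acid washes. Percent inhibition calculated from cpm relative to vehicle and 10 μM staurosporine control. IC50 derived from compound dose-dilution series.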
Sequence of Recombinant human JAK1 catalytic domain (P23458 850-1154): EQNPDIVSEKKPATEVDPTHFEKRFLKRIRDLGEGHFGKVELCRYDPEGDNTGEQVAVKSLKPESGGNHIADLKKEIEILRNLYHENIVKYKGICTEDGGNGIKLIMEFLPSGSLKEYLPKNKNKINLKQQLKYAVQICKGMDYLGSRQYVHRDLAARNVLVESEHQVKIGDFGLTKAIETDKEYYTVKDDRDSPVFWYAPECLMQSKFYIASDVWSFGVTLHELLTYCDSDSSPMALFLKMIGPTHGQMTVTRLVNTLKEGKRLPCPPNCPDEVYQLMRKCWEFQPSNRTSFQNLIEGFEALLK

Test [2] concerns the target Recombinant human JAK2 catalytic domain (Homo sapiens (Human), UniProt O60674). The experiment in a line: JAK2 inhibition assay. The test is classed as biochemical. As to conditions: semi-quantitative score. The method, then:
After 90 min at 30° C., reactions were stopped by adding of 25 μL/well of 150 mM phosphoric acid. […] Plates were washed 6 times with 300 μL per well of a 75 mM phosphoric acid solution and the bottom of the plates was sealed. 40 μL/well of Microscint-20 was added, the top of the plates was sealed and readout was performed using the Topcount (Perkin Elmer). Kinase activity was calculated by subtracting counts per minute (cpm) obtained in the presence of a positive control inhibitor (10 μM staurosporine) from cpm obtained in the presence of vehicle. The ability of a test compound to inhibit this activity was determined as: Percentage inhibition=((cpm determined for sample with test compound present−cpm determined for sample with positive control inhibitor) divided by (cpm determined in the presence of vehicle−cpm determined for sample with positive control inhibitor))*100%.
Dose dilution series were prepared for the compounds enabling the testing of dose-response effects in the JAK2 assay and the calculation of the IC50 for each compound.

Sequence of Recombinant human JAK2 catalytic domain (O60674 808-1132): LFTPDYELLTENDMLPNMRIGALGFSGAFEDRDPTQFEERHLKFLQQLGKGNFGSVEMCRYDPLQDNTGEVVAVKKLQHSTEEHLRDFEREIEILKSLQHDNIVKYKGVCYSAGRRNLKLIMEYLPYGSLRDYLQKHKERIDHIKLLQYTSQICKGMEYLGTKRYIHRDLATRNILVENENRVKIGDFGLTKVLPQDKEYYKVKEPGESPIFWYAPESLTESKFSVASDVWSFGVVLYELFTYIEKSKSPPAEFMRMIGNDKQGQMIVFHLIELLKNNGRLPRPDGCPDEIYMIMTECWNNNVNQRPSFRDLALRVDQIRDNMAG

`CC(C)(O)C1CCN(Cc2ccc(-c3cccc4nc(NC(=O)C5CC5)nn34)cc2)CC1` [Compound 243, Cyclopropanecarboxylic acid (5-{4-[4-(1-hydroxy-1-methyl-ethyl)-piperidin-1-ylmethyl]-phenyl}-[1,2,4]triazolo[1,5-a]pyridin-2-yl)-amide]: the half-maximal inhibitory concentration (IC50) in test [1] lay within 101 to 500 nM; in test [2], 501 to 1000 nM.

`CCN(CC)C1CCN(Cc2ccc(-c3cccc4nc(NC(=O)C5CC5)nn34)cc2)CC1` [Compound 247, Cyclopropanecarboxylic acid {5-[4-(4-diethylamino-piperidin-1-ylmethyl)-phenyl]-[1,2,4]triazolo[1,5-a]pyridin-2-yl}-amide]: the IC50 in test [1] and in test [2] was > 1000 nM in each case.

In the case of `O=C(Nc1nc2cccc(-c3ccc(CNc4cc(C(F)(F)F)ccc4F)cc3)n2n1)C1CC1` [Compound 248, Cyclopropanecarboxylic acid (5-{4-[(2-fluoro-5-trifluoromethyl-phenylamino)-methyl]-phenyl}-[1,2,4]triazolo[1,5-a]pyridin-2-yl)-amide], the IC50 in test [1] and in test [2] was 101 to 500 nM in each case.

Turning to `O=C(Nc1nc2cccc(-c3ccc(CN4CCC(CO)CC4)cc3)n2n1)C1CC1` [Compound 250, Cyclopropanecarboxylic acid {5-[4-(4-hydroxymethyl-piperidin-1-ylmethyl)-phenyl]-[1,2,4]triazolo[1,5-a]pyridin-2-yl}-amide], the results for the half-maximal inhibitory concentration (IC50) in test [1] and in test [2] were 101 to 500 nM and 501 to 1000 nM, respectively.

For the compound `NC(=O)C1CCN(C(=O)c2ccc(-c3cccc4nc(NC(=O)C5CC5)nn34)cc2)CC1` [Compound 274, 1-{4-[2-(Cyclopropanecarbonyl-amino)-[1,2,4]triazolo[1,5-a]pyridin-5-yl]-benzoyl}-piperidine-4-carboxylic acid amide], the 50% inhibitory concentration (IC50) in test [1] is 101 to 500 nM; in test [2] it was 501 to 1000 nM.

With `CC(C)(C)OC(=O)NC1CN(Cc2ccc(-c3cccc4nc(NC(=O)C5CC5)nn34)cc2)C1` [Compound 279, (1-{4-[2-(Cyclopropanecarbonyl-amino)-[1,2,4]triazolo[1,5-a]pyridin-5-yl]-benzyl}-azetidin-3-yl)-carbamic acid tert-butyl ester], the half-inhibitory concentration (IC50) in test [1] was 101 to 500 nM; in test [2], > 1000 nM.

For `CCOC1CCN(Cc2ccc(-c3cccc4nc(NC(=O)C5CC5)nn34)cc2)CC1` [Compound 282, Cyclopropanecarboxylic acid {5-[4-(4-ethoxy-piperidin-1-ylmethyl)-phenyl]-[1,2,4]triazolo[1,5-a]pyridin-2-yl}-amide], the concentration for half-maximal inhibition (IC50) in test [1] is 101 to 500 nM; in test [2], > 1000 nM.

As for `CC(=O)N(C)C1CN(Cc2ccc(-c3cccc4nc(NC(=O)C5CC5)nn34)cc2)C1` [Compound 283, Cyclopropanecarboxylic acid (5-{4-[3-(acetyl-methyl-amino)-azetidin-1-ylmethyl]-phenyl}-[1,2,4]triazolo[1,5-a]pyridin-2-yl)-amide], the IC50 in test [1] and in test [2] was > 1000 nM each time.

As to `CCN(CC)C1CCN(C(=O)c2ccc(-c3cccc4nc(NC(=O)C5CC5)nn34)cc2)C1` (centres unmarked) [Compound 285, Cyclopropanecarboxylic acid {5-[4-(3-diethylamino-pyrrolidine-1-carbonyl)-phenyl]-[1,2,4]triazolo[1,5-a]pyridin-2-yl}-amide], the figures for the concentration for half-maximal inhibition (IC50) in test [1] and in test [2] were 101 to 500 nM and > 1000 nM, respectively.

In the case of `O=C(Nc1nc2cccc(-c3ccc(C(=O)N4CCC(O)(c5ccccc5)CC4)cc3)n2n1)C1CC1` [Compound 286, Cyclopropanecarboxylic acid {5-[4-(4-hydroxy-4-phenyl-piperidine-1-carbonyl)-phenyl]-[1,2,4]triazolo[1,5-a]pyridin-2-yl}-amide], the values for the IC50 in test [1] and in test [2] were 101 to 500 nM and 501 to 1000 nM, respectively.

Turning to `O=C(Nc1nc2cccc(-c3ccc(C(=O)N4CCCC(C(=O)N5CCCCC5)C4)cc3)n2n1)C1CC1` (centres unmarked) [Compound 290, Cyclopropanecarboxylic acid (5-{4-[3-(piperidine-1-carbonyl)-piperidine-1-carbonyl]-phenyl}-[1,2,4]triazolo[1,5-a]pyridin-2-yl)-amide], the values for the half-inhibitory concentration (IC50) in test [1] and in test [2] were 101 to 500 nM and > 1000 nM, respectively.

`CCOC1CCN(C(=O)c2ccc(-c3cccc4nc(NC(=O)C5CC5)nn34)cc2)CC1` [Compound 294, Cyclopropanecarboxylic acid {5-[4-(4-ethoxy-piperidine-1-carbonyl)-phenyl]-[1,2,4]triazolo[1,5-a]pyridin-2-yl}-amide]: the IC50 in test [1] is 101 to 500 nM; in test [2] it was > 1000 nM.

For the compound `CCN(CC)C(=O)C1CCCN(C(=O)c2ccc(-c3cccc4nc(NC(=O)C5CC5)nn34)cc2)C1` (centres unmarked) [Compound 295, 1-{4-[2-(Cyclopropanecarbonyl-amino)-[1,2,4]triazolo[1,5-a]pyridin-5-yl]-benzoyl}-piperidine-3-carboxylic acid diethylamide], the IC50 in test [1] was 101 to 500 nM; in test [2], > 1000 nM.

For the compound `CC(=O)NC1CCCN(C(=O)c2ccc(-c3cccc4nc(NC(=O)C5CC5)nn34)cc2)C1` (centres unmarked) [Compound 296, Cyclopropanecarboxylic acid {5-[4-(3-acetylamino-piperidine-1-carbonyl)-phenyl]-[1,2,4]triazolo[1,5-a]pyridin-2-yl}-amide], the concentration for half-maximal inhibition (IC50) is 101 to 500 nM in test [1] and 501 to 1000 nM in test [2].

With `CN(C)CC1CN(Cc2ccc(-c3cccc4nc(NC(=O)C5CC5)nn34)cc2)C1` [Compound 298, Cyclopropanecarboxylic acid {5-[4-(3-dimethylaminomethyl-azetidin-1-ylmethyl)-phenyl]-[1,2,4]triazolo[1,5-a]pyridin-2-yl}-amide], the IC50 in test [1] and in test [2] was > 1000 nM each time.

Consider `CN(C)C(=O)C1CN(Cc2ccc(-c3cccc4nc(NC(=O)C5CC5)nn34)cc2)C1` [Compound 299, 1-{4-[2-(Cyclopropanecarbonyl-amino)-[1,2,4]triazolo[1,5-a]pyridin-5-yl]-benzyl}-azetidine-3-carboxylic acid dimethylamide], for which the figures for the IC50 in test [1] and in test [2] were 501 to 1000 nM and > 1000 nM, respectively.

Consider `O=C(Nc1nc2cccc(-c3ccc(CN4CC(N5CCOCC5)C4)cc3)n2n1)C1CC1` [Compound 300, Cyclopropanecarboxylic acid {5-[4-(3-morpholin-4-yl-azetidin-1-ylmethyl)-phenyl]-[1,2,4]triazolo[1,5-a]pyridin-2-yl}-amide], for which the 50% inhibitory concentration (IC50) in test [1] and in test [2] was > 1000 nM throughout.

For the compound `O=C(Nc1nc2cccc(-c3ccc(CN4CC[C@H](O)C4)cc3)n2n1)C1CC1` [Compound 305, Cyclopropanecarboxylic acid {5-[4-((S)-3-hydroxy-pyrrolidin-1-ylmethyl)-phenyl]-[1,2,4]triazolo[1,5-a]pyridin-2-yl}-amide], the IC50 in test [1] was 101 to 500 nM; in test [2], > 1000 nM.

As for `O=C(Nc1nc2cccc(-c3ccc(CN4CC[C@@H](O)C4)cc3)n2n1)C1CC1` [Compound 307, Cyclopropanecarboxylic acid {5-[4-((R)-3-hydroxy-pyrrolidin-1-ylmethyl)-phenyl]-[1,2,4]triazolo[1,5-a]pyridin-2-yl}-amide], the IC50 in test [1] is 101 to 500 nM; in test [2], > 1000 nM.

`CN1CCN(C(=O)NCc2ccc(-c3cccc4nc(NC(=O)C5CC5)nn34)cc2)CC1` [Compound 308, 4-Methyl-piperazine-1-carboxylic acid 4-[2-(cyclopropanecarbonyl-amino)-[1,2,4]triazolo[1,5-a]pyridin-5-yl]-benzylamide]: the results for the 50% inhibitory concentration (IC50) in test [1] and in test [2] were 101 to 500 nM and > 1000 nM, respectively.

Turning to `O=C(Nc1nc2cccc(-c3ccc(CNC(=O)N4CCOCC4)cc3)n2n1)C1CC1` [Compound 309, Morpholine-4-carboxylic acid 4-[2-(cyclopropanecarbonyl-amino)-[1,2,4]triazolo[1,5-a]pyridin-5-yl]-benzylamide], the values for the IC50 in test [1] and in test [2] were 101 to 500 nM and 501 to 1000 nM, respectively.

As for `O=C1CN(Cc2ccc(-c3cccc4nc(NC(=O)C5CC5)nn34)cc2)CCN1` [Compound 311, Cyclopropanecarboxylic acid {5-[4-(3-oxo-piperazin-1-ylmethyl)-phenyl]-[1,2,4]triazolo[1,5-a]pyridin-2-yl}-amide], the concentration for half-maximal inhibition (IC50) in test [1] and in test [2] was 101 to 500 nM throughout.

Consider `O=C(Nc1nc2cccc(-c3ccc(CNC4CC4)cc3)n2n1)C1CC1` [Compound 312, Cyclopropanecarboxylic acid [5-(4-cyclopropylaminomethyl-phenyl)-[1,2,4]triazolo[1,5-a]pyridin-2-yl]-amide], for which the IC50 in test [1] and in test [2] was 101 to 500 nM in each case.

Regarding `CC1(C)CN(Cc2ccc(-c3cccc4nc(NC(=O)C5CC5)nn34)cc2)C1` [Compound 314, Cyclopropanecarboxylic acid {5-[4-(3,3-dimethyl-azetidin-1-ylmethyl)-phenyl]-[1,2,4]triazolo[1,5-a]pyridin-2-yl}-amide], the IC50 in test [1] is 101 to 500 nM; in test [2], > 1000 nM.

`O=C(Nc1nc2cccc(-c3ccc(CN4CC(F)(F)C4)cc3)n2n1)C1CC1` [Compound 315, Cyclopropanecarboxylic acid {5-[4-(3,3-difluoro-azetidin-1-ylmethyl)-phenyl]-[1,2,4]triazolo[1,5-a]pyridin-2-yl}-amide]: the 50% inhibitory concentration (IC50) in test [1] and in test [2] was 101 to 500 nM in each case.
